Assay [1] deals with RKO (RKOp27) human colon adenocarcinoma cells. The assay is described as follows: Alamar Blue cell viability assay, anti-proliferative/cytotoxic activity on proliferating RKO subclones. In kind it is cell-based. The conditions noted are these: RKOp27, 72 h, RKO p27 uninduced (proliferating) cells, value = class bound given in Table A, read-out: −logIC50 RKO p27 uninduced (proliferating) (converted). In outline: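 RKOp27 subclones (5000 cells/well) were exposed 24 h after seeding to semi-log compound dilutions in DMEM with 10% FCS, in quadruplicate, for 72 h at 37 °C. Viability was read by Alamar Blue fluorescence (544/590 nm) relative to untreated cells (1% DMSO medium). IC50 came from concentration-effect curves and is reported as −log IC50 [mol/l].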
(The colour change of resazurin is a common sign of viable cells or microbes.)

The test system of assay [2] is subclones of RKO colon adenocarcinoma cells (RKOp27 or RKOp21) arrested by Ponasterone A. In words: Alamar Blue cell viability assay, cell cycle specific mode of action: cells arrested by ectopic p27Kip1 induced by Ponasterone A versus proliferating cells. It counts as cell-based. The conditions noted are these: Homo sapiens, RKO p27 induced (arrested) cells, 10 μM Ponasterone A, 72 hours, value = class bound given in Table A, read-out: −logIC50 RKO p27 induced (arrested) (converted). In outline:
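RKOp27 or RKOp21 cells, 15000/well in DMEM/10% FCS, either arrested by p27Kip1 induced with 10 μM Ponasterone A or proliferating without inducer; compound added after 24 h, 72 h at 37° C. Alamar Blue fluorescence (544/590 nm), viability as % of untreated cells; −log IC50 reported.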

Molecules are shown by their SMILES.

The values that follow come from patent US20110044938A1 (NYCOMED GMBH, priority 2006, published 2011).

Regarding `CC(CC(=O)Nc1sc2c(c1C#N)CCC(COC(=O)NCc1ccncc1)C2)c1ccccc1` (centres unmarked) [Example 306, Pyridin-4-ylmethyl-carbamic acid 3-cyano-2-(3-phenyl-butanoyl-amino)-4,5,6,7-tetrahydro-benzo[b] thiophen-6-ylmethyl ester], the IC50 was at most 501 nM in assay [1] and at least 50.1 µM in assay [2].

On to `Cc1cc(CNC(=O)OCC2CCc3c(sc(NC(=O)CC(C)c4cccnc4)c3C#N)C2)on1` (centres unmarked) [Example 370, (3-Methyl-isoxazol-5-ylmethyl)-carbamic acid 3-cyano-2-(3-pyridin-3-yl-butanoylamino)-4,5,6,7-tetrahydro-benzo[b] thiophen-6-ylmethyl ester], for which the IC50 was 501 to 2000 nM in assay [1] and at least 50.1 µM in assay [2].

Regarding `COc1cccc(CCC(=O)Nc2sc3c(c2C#N)CCC(COC(=O)NCc2cn(C)cn2)C3)c1` (centres unmarked) [Example 238, (1-Methyl-1H-imidazol-4-ylmethyl)-carbamic acid 3-cyano-2-[3-(3-methoxy-phenyl)-propanoylamino]-4,5,6,7-tetrahydro-benzo[b]thiophen-6-ylmethyl ester], the IC50 in assay [1] is 501 to 2000 nM; in assay [2], at least 100 µM.

With `N#Cc1c(NC(=O)/C=C/c2cccnc2)sc2c1CCC(OC(=O)N1CCCCC1)C2` (centres unmarked) [Example 111, Piperidine-1-carboxylic acid 3-cyano-2-((E)-3-pyridin-3-yl-allanoylamino)-4,5,6,7-tetrahydro-benzo[b]thiophen-6-yl ester], the IC50 was at most 501 nM in assay [1] and at least 100 µM in assay [2].

In the case of `N#Cc1c(NC(=O)/C=C/c2cccnc2)sc2c1CCC(OC(=O)NC1CCCCC1)C2` (centres unmarked) [Example 142, Cyclohexyl-carbamic acid 3-cyano-2-((E)-3-pyridin-3-yl-allanoylamino)-4,5,6,7-tetrahydro-benzo[b]thiophen-6-yl ester], the IC50 in assay [1] was 501 to 2000 nM; in assay [2] it was at least 100 µM.

For `CC(CC(=O)Nc1sc2c(c1C#N)CCC(OC(=O)NCc1ccnn1C)C2)c1ccccc1` (centres unmarked) [Example 293, (2-Methyl-2H-pyrazol-3-ylmethyl)-carbamic acid 3-cyano-2-(3-phenyl-butanoylamino)-4,5,6,7-tetrahydro-benzo[b] thiophen-6-yl ester], the IC50 is at most 501 nM in assay [1] and at least 50.1 µM in assay [2].

Turning to `Cc1cc(CNC(=O)OCC2CCc3c(sc(NC(=O)CCc4cccnc4)c3C#N)C2)no1` (centres unmarked) [Example 256, (5-Methyl-isoxazol-3-ylmethyl)-carbamic acid 3-cyano-2-(3-pyridin-3-yl-propanoylamino)-4,5,6,7-tetrahydro-benzo[b]thiophen-6-ylmethyl ester], the IC50 in assay [1] was 501 to 2000 nM; in assay [2], at least 100 µM.

On to `N#Cc1c(NC(=O)/C=C/c2cccnc2)sc2c1CCC(COC(=O)NCCO)C2` (centres unmarked) [Example 29, (2-Hydroxy-ethyl)-carbamic acid 3-cyano-2-((E)-3-pyridin-3-yl-allanoylamino)-4,5,6,7-tetrahydro-benzo[b]thiophen-6-ylmethyl ester], for which the figures for the IC50 in assay [1] and in assay [2] were 501 to 2000 nM and at least 100 µM, respectively.

For the compound `COC[C@@H]1CCCN1C(=O)OCC1CCc2c(sc(NC(=O)/C=C/c3cccnc3)c2C#N)C1` (stereo partly drawn) [Example 90, 2-(S)-(Methoxymethyl) pyrrolidine-1-carboxylic acid 3-cyano-2-((E)-3-pyridin-3-yl-allanoylamino)-4,5,6,7-tetrahydro-benzo[b]thiophen-6-ylmethyl ester], the values for the IC50 in assay [1] and in assay [2] were at most 501 nM and at least 100 µM, respectively.

For the compound `N#Cc1c(NC(=O)/C=C/c2cccnc2)sc2c1CCC(COC(=O)N1CCC1)C2` (centres unmarked) [Example 79, Azetidine-1-carboxylic acid 3-cyano-2-((E)-3-pyridin-3-yl-allanoylamino)-4,5,6,7-tetrahydro-benzo[b]thiophen-6-ylmethyl ester], the IC50 in assay [1] was 501 to 2000 nM; in assay [2], at least 100 µM.
